Test results as given in ChEMBL document CHEMBL4507276 (2021).

Assays:
[1] = molecular target: T1, Calcium/calmodulin-dependent protein kinase type IV (Homo sapiens) (UniProt Q16566); conditions: Compound concentration 1000.0 nM
T1 sequence (whole entry): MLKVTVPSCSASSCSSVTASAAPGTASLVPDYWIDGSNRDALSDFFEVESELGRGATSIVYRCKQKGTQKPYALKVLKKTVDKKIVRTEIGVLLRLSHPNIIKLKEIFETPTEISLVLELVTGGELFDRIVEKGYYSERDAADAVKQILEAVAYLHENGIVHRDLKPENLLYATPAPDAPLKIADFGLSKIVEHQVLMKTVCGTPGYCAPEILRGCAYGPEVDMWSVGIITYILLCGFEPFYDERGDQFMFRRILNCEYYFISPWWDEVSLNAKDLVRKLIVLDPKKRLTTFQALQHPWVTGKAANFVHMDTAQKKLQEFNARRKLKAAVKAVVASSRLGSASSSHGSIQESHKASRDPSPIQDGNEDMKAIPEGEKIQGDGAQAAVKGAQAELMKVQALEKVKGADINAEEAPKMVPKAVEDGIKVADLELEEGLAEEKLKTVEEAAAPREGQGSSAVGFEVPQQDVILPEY

[2] = test system: Epidermal growth factor receptor (Homo sapiens), P00533 [T790M]; conditions: Compound concentration 1000.0 nM
[3] = molecular target: T2, Ephrin type-B receptor 1 (Homo sapiens) (UniProt P54762); conditions: Compound concentration 1000.0 nM
T2 sequence (whole entry): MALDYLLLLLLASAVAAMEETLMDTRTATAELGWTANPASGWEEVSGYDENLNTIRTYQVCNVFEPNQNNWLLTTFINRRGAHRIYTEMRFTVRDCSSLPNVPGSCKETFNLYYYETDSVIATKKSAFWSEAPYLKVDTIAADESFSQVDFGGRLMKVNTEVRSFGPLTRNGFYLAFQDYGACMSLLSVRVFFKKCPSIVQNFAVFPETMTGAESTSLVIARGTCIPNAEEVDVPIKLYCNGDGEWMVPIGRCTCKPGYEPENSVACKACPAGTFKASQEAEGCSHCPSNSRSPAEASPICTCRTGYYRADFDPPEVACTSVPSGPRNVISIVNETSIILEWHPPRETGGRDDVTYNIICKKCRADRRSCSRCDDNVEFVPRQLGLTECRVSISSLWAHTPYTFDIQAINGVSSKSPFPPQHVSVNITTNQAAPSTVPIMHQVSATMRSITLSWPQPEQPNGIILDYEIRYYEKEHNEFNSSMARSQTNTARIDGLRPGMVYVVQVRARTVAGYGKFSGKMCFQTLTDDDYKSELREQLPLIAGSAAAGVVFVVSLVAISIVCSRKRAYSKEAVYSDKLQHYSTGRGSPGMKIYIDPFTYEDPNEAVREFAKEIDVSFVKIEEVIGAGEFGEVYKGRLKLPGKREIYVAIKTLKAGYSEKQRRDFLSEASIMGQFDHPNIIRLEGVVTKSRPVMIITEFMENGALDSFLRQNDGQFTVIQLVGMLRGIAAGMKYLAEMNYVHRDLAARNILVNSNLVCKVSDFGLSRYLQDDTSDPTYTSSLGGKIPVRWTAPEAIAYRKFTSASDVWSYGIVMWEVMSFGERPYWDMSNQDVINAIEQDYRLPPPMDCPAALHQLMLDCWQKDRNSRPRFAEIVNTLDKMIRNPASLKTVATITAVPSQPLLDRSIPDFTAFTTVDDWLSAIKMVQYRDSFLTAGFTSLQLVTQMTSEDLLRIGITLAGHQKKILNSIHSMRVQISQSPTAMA

[4] = molecular target: T3, Ephrin type-B receptor 2 (Homo sapiens) (UniProt P29323); conditions: Compound concentration 1000.0 nM
T3 sequence (whole entry): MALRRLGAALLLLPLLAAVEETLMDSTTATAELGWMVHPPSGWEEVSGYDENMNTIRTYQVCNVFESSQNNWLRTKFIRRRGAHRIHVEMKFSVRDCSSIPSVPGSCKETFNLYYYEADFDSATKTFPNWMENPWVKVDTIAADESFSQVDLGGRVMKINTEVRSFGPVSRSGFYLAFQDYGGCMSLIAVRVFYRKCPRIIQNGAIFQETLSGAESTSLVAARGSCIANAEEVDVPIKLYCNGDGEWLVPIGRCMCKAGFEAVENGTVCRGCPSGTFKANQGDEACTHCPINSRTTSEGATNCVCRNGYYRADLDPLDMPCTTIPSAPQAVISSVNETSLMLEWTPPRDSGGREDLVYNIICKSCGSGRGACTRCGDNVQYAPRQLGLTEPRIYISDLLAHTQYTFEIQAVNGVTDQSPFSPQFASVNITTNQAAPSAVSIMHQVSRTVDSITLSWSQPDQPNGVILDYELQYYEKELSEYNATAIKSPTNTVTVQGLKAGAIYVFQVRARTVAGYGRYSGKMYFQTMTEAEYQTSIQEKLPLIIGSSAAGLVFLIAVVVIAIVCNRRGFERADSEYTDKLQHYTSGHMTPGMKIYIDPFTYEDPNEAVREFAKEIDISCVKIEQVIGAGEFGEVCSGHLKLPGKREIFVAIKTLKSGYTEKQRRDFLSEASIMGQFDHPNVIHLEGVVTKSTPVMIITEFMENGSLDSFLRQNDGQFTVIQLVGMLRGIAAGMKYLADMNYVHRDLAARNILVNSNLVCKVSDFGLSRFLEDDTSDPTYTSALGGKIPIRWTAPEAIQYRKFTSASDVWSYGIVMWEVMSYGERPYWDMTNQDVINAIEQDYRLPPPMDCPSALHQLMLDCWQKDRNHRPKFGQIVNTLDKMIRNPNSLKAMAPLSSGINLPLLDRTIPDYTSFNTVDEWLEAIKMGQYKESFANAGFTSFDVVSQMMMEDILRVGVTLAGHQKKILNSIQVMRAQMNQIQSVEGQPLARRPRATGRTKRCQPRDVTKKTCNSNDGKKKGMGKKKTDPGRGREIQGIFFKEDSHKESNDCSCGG

[5] = test system: Hepatocyte growth factor receptor (Homo sapiens), P08581 [M1250T]; conditions: Compound concentration 1000.0 nM
[6] = molecular target: Platelet-derived growth factor receptor alpha (Homo sapiens) (UniProt P16234); conditions: Compound concentration 1000.0 nM
[7] = molecular target: Phosphatidylinositol 5-phosphate 4-kinase type-2 beta (Homo sapiens) (UniProt P78356); conditions: Compound concentration 1000.0 nM
[8] = molecular target: cAMP-dependent protein kinase catalytic subunit alpha (Homo sapiens) (UniProt P17612); conditions: Compound concentration 1000.0 nM
[9] = molecular target: SRSF protein kinase 3 (Homo sapiens) (UniProt Q9UPE1); conditions: Compound concentration 1000.0 nM
[10] = molecular target: Serine/threonine-protein kinase tousled-like 2 (Homo sapiens) (UniProt Q86UE8); conditions: Compound concentration 1000.0 nM
[11] = molecular target: D(2) dopamine receptor (Homo sapiens) (UniProt P14416); conditions: Compound concentration 10.0 uM
D(2) dopamine receptor (Homo sapiens), sequence (P14416 whole entry): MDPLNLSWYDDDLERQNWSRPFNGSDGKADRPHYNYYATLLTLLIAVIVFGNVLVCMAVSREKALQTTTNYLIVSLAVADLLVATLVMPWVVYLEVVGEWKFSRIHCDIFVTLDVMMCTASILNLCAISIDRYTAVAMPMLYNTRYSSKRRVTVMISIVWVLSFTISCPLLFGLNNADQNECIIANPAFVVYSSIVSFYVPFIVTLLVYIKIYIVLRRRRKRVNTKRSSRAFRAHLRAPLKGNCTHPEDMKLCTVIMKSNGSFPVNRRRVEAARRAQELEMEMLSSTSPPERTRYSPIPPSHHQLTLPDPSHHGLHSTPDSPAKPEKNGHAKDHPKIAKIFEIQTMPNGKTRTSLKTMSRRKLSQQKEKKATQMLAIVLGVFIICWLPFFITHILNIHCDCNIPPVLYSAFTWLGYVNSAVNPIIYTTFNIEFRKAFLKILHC

Serine/threonine-protein kinase tousled-like 2 (Homo sapiens), sequence (Q86UE8 whole entry, looked up): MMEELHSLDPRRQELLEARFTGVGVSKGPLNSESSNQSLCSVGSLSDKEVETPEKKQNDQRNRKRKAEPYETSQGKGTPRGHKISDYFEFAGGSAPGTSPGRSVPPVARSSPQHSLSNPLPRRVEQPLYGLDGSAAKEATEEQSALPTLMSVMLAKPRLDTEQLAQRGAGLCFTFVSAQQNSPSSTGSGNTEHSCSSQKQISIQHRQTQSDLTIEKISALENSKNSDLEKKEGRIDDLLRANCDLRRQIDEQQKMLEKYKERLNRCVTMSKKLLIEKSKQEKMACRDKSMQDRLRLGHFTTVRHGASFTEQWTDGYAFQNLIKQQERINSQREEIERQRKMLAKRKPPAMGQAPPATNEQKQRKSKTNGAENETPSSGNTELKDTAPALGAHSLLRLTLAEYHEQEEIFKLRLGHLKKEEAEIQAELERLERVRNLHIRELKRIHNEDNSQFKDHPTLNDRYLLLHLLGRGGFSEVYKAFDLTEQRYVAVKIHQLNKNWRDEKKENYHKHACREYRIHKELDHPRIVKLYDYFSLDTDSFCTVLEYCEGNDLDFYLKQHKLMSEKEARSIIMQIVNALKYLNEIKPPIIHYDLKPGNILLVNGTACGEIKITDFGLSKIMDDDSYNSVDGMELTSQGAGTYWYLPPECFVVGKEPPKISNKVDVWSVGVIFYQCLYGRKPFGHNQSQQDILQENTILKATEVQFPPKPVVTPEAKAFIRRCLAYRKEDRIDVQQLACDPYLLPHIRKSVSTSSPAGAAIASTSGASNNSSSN
Platelet-derived growth factor receptor alpha (Homo sapiens), sequence (P16234 whole entry): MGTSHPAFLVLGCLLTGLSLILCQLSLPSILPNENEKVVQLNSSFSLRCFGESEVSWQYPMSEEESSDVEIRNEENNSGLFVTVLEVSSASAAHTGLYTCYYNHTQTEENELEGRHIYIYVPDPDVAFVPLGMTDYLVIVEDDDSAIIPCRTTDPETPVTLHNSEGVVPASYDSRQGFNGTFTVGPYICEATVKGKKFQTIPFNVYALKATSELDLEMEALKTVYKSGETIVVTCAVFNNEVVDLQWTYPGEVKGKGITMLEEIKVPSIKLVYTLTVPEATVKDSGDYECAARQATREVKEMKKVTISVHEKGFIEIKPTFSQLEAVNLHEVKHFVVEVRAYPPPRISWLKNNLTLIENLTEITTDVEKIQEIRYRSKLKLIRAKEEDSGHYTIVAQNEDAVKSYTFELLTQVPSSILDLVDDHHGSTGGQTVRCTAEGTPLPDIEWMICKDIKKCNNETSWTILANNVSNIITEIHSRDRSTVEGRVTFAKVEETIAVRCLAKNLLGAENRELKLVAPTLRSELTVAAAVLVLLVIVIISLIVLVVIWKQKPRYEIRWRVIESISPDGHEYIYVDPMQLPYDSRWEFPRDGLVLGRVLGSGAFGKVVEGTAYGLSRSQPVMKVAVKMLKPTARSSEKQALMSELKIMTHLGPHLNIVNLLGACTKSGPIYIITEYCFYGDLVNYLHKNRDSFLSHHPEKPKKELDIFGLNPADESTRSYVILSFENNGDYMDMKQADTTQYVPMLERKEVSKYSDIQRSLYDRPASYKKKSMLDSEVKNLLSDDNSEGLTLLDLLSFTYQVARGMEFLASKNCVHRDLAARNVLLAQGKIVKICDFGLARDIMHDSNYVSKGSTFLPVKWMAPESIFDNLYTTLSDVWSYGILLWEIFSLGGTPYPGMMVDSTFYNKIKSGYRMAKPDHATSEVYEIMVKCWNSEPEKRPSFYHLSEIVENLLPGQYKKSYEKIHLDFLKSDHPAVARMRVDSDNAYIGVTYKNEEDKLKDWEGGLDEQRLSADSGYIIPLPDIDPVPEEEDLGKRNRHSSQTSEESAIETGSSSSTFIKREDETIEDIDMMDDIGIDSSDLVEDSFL
Phosphatidylinositol 5-phosphate 4-kinase type-2 beta (Homo sapiens), sequence (P78356 whole entry): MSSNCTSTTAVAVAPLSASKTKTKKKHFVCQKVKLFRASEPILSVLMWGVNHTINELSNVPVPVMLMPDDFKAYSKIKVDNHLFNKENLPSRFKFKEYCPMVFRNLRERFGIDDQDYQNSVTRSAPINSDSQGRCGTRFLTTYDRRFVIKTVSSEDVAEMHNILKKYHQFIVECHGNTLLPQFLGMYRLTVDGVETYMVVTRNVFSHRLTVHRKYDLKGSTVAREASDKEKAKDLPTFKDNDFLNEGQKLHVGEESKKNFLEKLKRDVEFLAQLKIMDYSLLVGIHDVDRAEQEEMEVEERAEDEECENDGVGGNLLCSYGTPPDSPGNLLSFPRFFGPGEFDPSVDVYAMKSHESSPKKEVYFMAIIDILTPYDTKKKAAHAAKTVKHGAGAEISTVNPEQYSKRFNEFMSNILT
SRSF protein kinase 3 (Homo sapiens), sequence (Q9UPE1 whole entry): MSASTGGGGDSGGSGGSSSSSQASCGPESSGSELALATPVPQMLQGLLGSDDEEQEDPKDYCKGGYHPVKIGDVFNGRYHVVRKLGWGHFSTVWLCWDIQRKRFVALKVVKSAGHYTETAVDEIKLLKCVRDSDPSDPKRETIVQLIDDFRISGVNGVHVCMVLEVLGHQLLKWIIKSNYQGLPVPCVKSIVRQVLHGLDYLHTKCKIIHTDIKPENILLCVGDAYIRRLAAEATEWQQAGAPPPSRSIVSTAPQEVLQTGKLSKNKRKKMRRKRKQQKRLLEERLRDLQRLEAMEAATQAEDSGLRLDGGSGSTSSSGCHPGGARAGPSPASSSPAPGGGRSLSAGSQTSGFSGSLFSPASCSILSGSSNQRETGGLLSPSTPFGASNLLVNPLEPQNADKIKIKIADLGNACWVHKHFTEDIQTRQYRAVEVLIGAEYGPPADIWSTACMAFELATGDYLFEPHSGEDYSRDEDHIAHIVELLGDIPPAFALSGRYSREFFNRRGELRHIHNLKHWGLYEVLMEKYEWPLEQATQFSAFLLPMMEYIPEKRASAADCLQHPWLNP

CN(C)C(=O)Cn1cc(-c2nc(C3(c4ccc(-c5cnc(N)nc5)cc4)CC3)no2)cn1 [BI 0153]
inactive: residual activity [1] 100% | residual activity [2] 80% | residual activity [3] 100% | residual activity [4] 70% | residual activity [5] 100% | residual activity [6] 83% | residual activity [7] 71% | residual activity [8] 91% | residual activity [9] 100% | residual activity [10] 100% | inhibition [11] 16.1%

CN(C)C(=O)Cn1cc(-c2nc([C@@](C)(c3ccc(-c4cnc(N)nc4)cc3)C3CC3)no2)cn1 [BI 665915]
inactive: residual activity [1] 83% | residual activity [2] 100% | residual activity [3] 100% | residual activity [4] 87% | residual activity [5] 93% | residual activity [6] 100% | residual activity [7] 100% | residual activity [8] 87% | residual activity [9] 85% | residual activity [10] 100% | inhibition [11] 13.6%
